Data set [1] is described as follows: Lipophilicity, log P of the compound. Type of data set: physicochemical. Particulars: octanol/water.
The test system of another data set is HepG2. Description: Upregulation of LDLR mRNA expression in human HepG2 cells by RT-PCR. Type of data set: functional, cell-based.
For data set [2], the system named is Rattus norvegicus. As to the kind of experiment: Toxicity in high fat high cholesterol diet fed Sprague-Dawley rat hyperlipidemic model assessed as liver of kidney function abnormalities at 100 mg/kg, po qd for 28 days. To be noted: in vivo, 672 h.
Data set [3] relates to Rattus norvegicus. As to the kind of experiment: Hypolipidemic activity in high fat high cholesterol diet fed Sprague-Dawley rat hyperlipidemic model assessed as reduction in total cholesterol 100 mg/kg, po qd for 28 days. Also noted: scale not given: the % may be the effect or the level left.
Data set [4] deals with Rattus norvegicus. Description: Toxicity in high fat high cholesterol diet fed Sprague-Dawley rat hyperlipidemic model assessed as reduction in food intake at 100 mg/kg, po qd for 28 days. To be noted: in vivo, 672 h.
Data set [5] has as its system Rattus norvegicus. Description: Hypolipidemic activity in high fat high cholesterol diet fed Sprague-Dawley rat hyperlipidemic model assessed as reduction in LDL cholesterol 100 mg/kg, po qd for 28 days. Also noted: scale not given: the % may be the effect or the level left.
Data set [6] relates to Rattus norvegicus. Description: Toxicity in high fat high cholesterol diet fed Sprague-Dawley rat hyperlipidemic model assessed as weight loss at 100 mg/kg, po qd for 28 days. To be noted: in vivo, 672 h.

Calls of active or inactive are those of the source. The rule behind the calls is not given here.

The term logP denotes the decadic logarithm of the partition coefficient of the neutral form, usually between octanol and water.

As to `COc1ccc2cc3[n+](cc2c1O)CCc1cc2c(cc1-3)OCO2` [BERBERRUBINE CHLORIDE], the logP in data set [1] is -1.06.
`COc1ccc2cc3[n+](cc2c1OCOC(=O)c1ccccc1)CCc1cc2c(cc1-3)OCO2`: in the data set on HepG2, the result was inactive. For the same molecule, in data set [1], the logP was 0.97.
Regarding `COc1ccc2cc3[n+](cc2c1OCOC(=O)C(C)(C)C)CCc1cc2c(cc1-3)OCO2`, the outcome in the data set with HepG2 was inactive. The molecule also displayed a logP in data set [1] of -0.06.
As for `CCCCC(=O)Oc1c(OC)ccc2cc3[n+](cc12)CCc1cc2c(cc1-3)OCO2`, in the data set on HepG2, the outcome was inactive. The same molecule yielded a logP in data set [1] of 0.1.
Turning to `COc1ccc2cc3[n+](cc2c1OC(=O)C(C)(C)C)CCc1cc2c(cc1-3)OCO2`, in the data set on HepG2, the outcome was inactive. In data set [1], this molecule showed a logP of -0.25.
Consider `CCCCCCCCCCCC(=O)Oc1c(OC)ccc2cc3[n+](cc12)CCc1cc2c(cc1-3)OCO2`, for which, in the data set with HepG2, the outcome was inactive. In data set [1], this molecule had a logP of 3.8.
The matching figures for `CCCCCCC(=O)Oc1c(OC)ccc2cc3[n+](cc12)CCc1cc2c(cc1-3)OCO2`: “inactive” and 1.16.
`CCCCCCCCCC(=O)Oc1c(OC)ccc2cc3[n+](cc12)CCc1cc2c(cc1-3)OCO2`: the result in the data set on HepG2 was inactive. The molecule further had a logP in data set [1] of 2.74.
Regarding `COc1ccc2cc3[n+](cc2c1OC(=O)/C=C/c1ccccc1)CCc1cc2c(cc1-3)OCO2`, in the data set with HepG2, the result was inactive. Besides, the logP in data set [1] stood at 1.03.
On to `CCCCCCCCCCCCCCCCCC(=O)Oc1c(OC)ccc2cc3[n+](cc12)CCc1cc2c(cc1-3)OCO2`, for which, in the data set with HepG2, the outcome was inactive. In data set [1], this molecule came in with a logP of 6.98.
The matching figures for `COc1ccc2cc3[n+](cc2c1OC(=O)c1ccccc1)CCc1cc2c(cc1-3)OCO2`: “inactive” and 0.58.
Take `CCCC(=O)Oc1c(OC)ccc2cc3[n+](cc12)CCc1cc2c(cc1-3)OCO2`: the outcome with HepG2 was inactive. Further, in data set [1], the logP is -0.43.
Regarding `CCCCCCCC(=O)Oc1c(OC)ccc2cc3[n+](cc12)CCc1cc2c(cc1-3)OCO2`, the outcome in the data set on HepG2 was inactive. In data set [1], the logP worked out at 1.69.
Turning to `CCCCCCCCCCCCCCCC(=O)Oc1c(OC)ccc2cc3[n+](cc12)CCc1cc2c(cc1-3)OCO2.[Cl-]`, the Activity entry is reported as “Non-toxic” in the data set on Rattus norvegicus [2]; 35.8% in the data set with Rattus norvegicus [3]; “Non-toxic” with Rattus norvegicus [4]; 45.5% in the data set with Rattus norvegicus [5]; “Non-toxic” in the data set on Rattus norvegicus [6]. Further, the outcome with HepG2 was inactive. In data set [1], this molecule gave a logP of 5.91.
With `CCOC(=O)Oc1c(OC)ccc2cc3[n+](cc12)CCc1cc2c(cc1-3)OCO2`, in the data set on HepG2, the outcome was inactive. Further, in data set [1], the logP was -1.18.
Take `COc1ccc2cc3[n+](cc2c1OC)CCc1cc2c(cc1-3)OCO2.[Cl-]` [BERBERINE CHLORIDE]: the Activity in the data set with Rattus norvegicus [3] was determined as 27.4%; in the data set on Rattus norvegicus [5] it was 38%. The molecule also displayed a logP in data set [1] of -0.92.

The record behind these values is ChEMBL document CHEMBL1221278, “Design, synthesis, and cholesterol-lowering efficacy for prodrugs of berberrubine” (Bioorg Med Chem, 2010).
